Results on four compounds are retold here after publication PMC2767189 (Clinical Pharmacology and Therapeutics, 2008).

What is called Ki is the equilibrium dissociation constant of an inhibitor or competing ligand from its target. As usually defined, the AUC is the area under the concentration-time curve, a measure of exposure. Read a high AUC as more exposure. The term Cmax denotes the highest concentration seen after dosing. Broadly, the Vd/F is the volume of distribution divided by bioavailability. Broadly, the half-life is how long it takes for the measured level to halve. Read a high half-life as slow loss.

Values joined by “and” are separate entries in the source; they are usually repeats but may differ in a detail not shown here. Equal entries are not always repeated. Where two headings read alike, the source gives them in different places.

Data set [1] in a line: Intracellular triphosphate. In kind it is in vivo, human. To be noted: median ratio, 4 h after dose vs predose; all subjects.
Data set [2] addresses HIV-1 reverse transcriptase. To be noted: cited from earlier work.
For data set [3] the following is noted: cited from earlier work.
For data set [4] the following is noted: 300 mg twice daily.
The conditions of data set [5]: cited from earlier work. The source holds these as a separate data set.
The next data set is described as follows: clinical. The settings on record: human, plasma, oral, 300 mg, 300 mg twice daily; for AUC: ABC AUC; for Cmax: ABC Cmax; for Vd/F: ABC Vd/F (volume of distribution); for half-life: ABC half-life.

With `Nc1nc(=O)c2ncn([C@H]3C=C[C@@H](COP(=O)(O)OP(=O)(O)OP(=O)(O)O)C3)c2[nH]1` [Carbovir-TP, carbovir-triphosphate], the “C4/C0 ratio of intracellular TP concentrations” value (“C4/C0 ratio” for short) in data set [1] was 1.89 and 1.9. In data set [2] (equivalent of 21 nmol/l), the “carbovir-TP reverse transcriptase Ki expressed as intracellular amount” value is given as ~ 10 fmol/10^6 cells. The inhibitory constant (Ki) in data set [2] (read-out: carbovir-TP reverse transcriptase Ki, ex vitro) is 21 nM. Moreover, in data set [3] (range reported from previous studies), the “intracellular carbovir-TP concentrations” value is reported as 4-290 fmol/10^6 cells.

`Nc1nc(NC2CC2)c2ncn([C@H]3C=C[C@@H](CO)C3)c2n1` [ABC, abacavir]: the “ABC CL/F (apparent oral clearance)” value in data set [4] (mean (SD), <18 years (n = 15)) is 47.47 (19.52) l/h; in data set [4] (mean (SD), Total (n = 30)), 45.44 (16.87) l/h; in data set [4] (mean (SD), ≥18 years (n = 15)) it was 43.40 (14.13) l/h; in data set [4] (median, <18 years (n = 15)), 42.80 L/h; in data set [4] (median, Total (n = 30)), 44.70 L/h; in data set [4] (median, ≥18 years (n = 15)), 45.50 L/h. Moreover, the “ABC CL/F adjusted for body surface area” value in data set [4] (mean (SD), <18 years (n = 15)) is 481.60 (192.62) ml/min/m^2; in data set [4] (mean (SD), Total (n = 30)), 437.77 (168.51) ml/min/m^2; in data set [4] (mean (SD), ≥18 years (n = 15)), 393.93 (132.66) ml/min/m^2; in data set [4] (median, <18 years (n = 15)), 382.00 ml/min/m^2; in data set [4] (median, Total (n = 30)), 390.50 ml/min/m^2; in data set [4] (median, ≥18 years (n = 15)) it was 399.00 ml/min/m^2. Moreover, the “ABC CL/F adjusted for weight” value in data set [4] (mean (SD), <18 years (n = 15)) is given as 13.03 (5.31) ml/min/kg; in data set [4] (mean (SD), Total (n = 30)) it was 11.73 (4.84) ml/min/kg. The “observed clearance seen in adults (reference value for hypothesis test on AUC)” value in data set [5] (adults, reference not printed at the place) was 6000 ng·h/mL. Moreover, in data set [5] (older adults, 300 mg twice daily (~4 mg/kg)), the “abacavir steady-state AUC” value is 5000 to 6000 ng·h/mL. Also, the “abacavir weight-adjusted apparent oral clearance” value in data set [5] (translated from 0.86 l/min for a 70-kg adult, ref 12 (McDowell et al.)) was 12.3 mL/min/kg. The AUC in the data set “clinical” (mean (SD), <18 years (n = 15)) is 7350 ng·h/mL; in the data set “clinical” (mean (SD), Total (n = 30)), 7480 ng·h/mL; in “clinical” (mean (SD), ≥18 years (n = 15)) it was 7610 ng·h/mL; in the data set “clinical” (median, <18 years (n = 15)) it was 7010 ng·h/mL; in “clinical” (median, Total (n = 30)) it was 6720 ng·h/mL; in the data set “clinical” (median, ≥18 years (n = 15)), 6590 ng·h/mL. Moreover, the Cmax is 2790 ng/mL in “clinical” (mean (SD), <18 years (n = 15)); 2860 ng/mL in the data set “clinical” (mean (SD), Total (n = 30)); 2940 ng/mL in the data set “clinical” (mean (SD), ≥18 years (n = 15)); 2580 ng/mL in the data set “clinical” (median, <18 years (n = 15)); 2620 ng/mL in “clinical” (median, Total (n = 30)); 2740 ng/mL in the data set “clinical” (median, ≥18 years (n = 15)). For the same compound, the Vd/F was 82.9 L and 1.35 L/kg in the data set “clinical” (mean (SD), <18 years (n = 15)); 77.8 L and 1.19 L/kg in the data set “clinical” (mean (SD), Total (n = 30)); 72.8 L and 1.04 L/kg in “clinical” (mean (SD), ≥18 years (n = 15)); 67.1 L and 0.9 L/kg in the data set “clinical” (median, <18 years (n = 15)); 71.5 L and 1.05 L/kg in “clinical” (median, Total (n = 30)); 73.5 L and 1.1 L/kg in the data set “clinical” (median, ≥18 years (n = 15)). For the same compound, the half-life in “clinical” (mean (SD), <18 years (n = 15)) was 1.23 h; in “clinical” (mean (SD), Total (n = 30)), 1.19 h; in the data set “clinical” (mean (SD), ≥18 years (n = 15)), 1.14 h; in “clinical” (median, <18 years (n = 15)) it was 1.22 h; in “clinical” (median, Total (n = 30)), 1.23 h; in “clinical” (median, ≥18 years (n = 15)), 1.34 h.

For `Cc1cn([C@H]2C[C@H](N=[N+]=[N-])[C@@H](CO[P@](=O)(O)O[P@](=O)(O)OP(=O)(O)O)O2)c(=O)[nH]c1=O` [Zidovudine-TP, zidovudine triphosphate], in data set [1], the “C4/C0 ratio” value is listed as 1.95. The “intracellular zidovudine-TP concentrations” value in data set [3] (range seen in previous studies) is 6.3-58 fmol/10^6 cells.

As for `Nc1ccn([C@@H]2CS[C@H](COP(=O)(O)OP(=O)(O)OP(=O)(O)O)O2)c(=O)n1` [Lamivudine-TP, lamivudine triphosphate], the “C4/C0 ratio” value in data set [1] is 1.31 and 1.3. Besides, the “intracellular lamivudine-TP average concentrations” value in data set [3] (range of averages in previous studies) is reported as 1.7-8.6 pmol/10^6 cells.
